Where only a bound is given, the exact number is not on record here.

Assay [1] addresses T1, Homeodomain-interacting protein kinase 4 (Homo sapiens) (UniProt Q8NE63).
T1 sequence (whole entry): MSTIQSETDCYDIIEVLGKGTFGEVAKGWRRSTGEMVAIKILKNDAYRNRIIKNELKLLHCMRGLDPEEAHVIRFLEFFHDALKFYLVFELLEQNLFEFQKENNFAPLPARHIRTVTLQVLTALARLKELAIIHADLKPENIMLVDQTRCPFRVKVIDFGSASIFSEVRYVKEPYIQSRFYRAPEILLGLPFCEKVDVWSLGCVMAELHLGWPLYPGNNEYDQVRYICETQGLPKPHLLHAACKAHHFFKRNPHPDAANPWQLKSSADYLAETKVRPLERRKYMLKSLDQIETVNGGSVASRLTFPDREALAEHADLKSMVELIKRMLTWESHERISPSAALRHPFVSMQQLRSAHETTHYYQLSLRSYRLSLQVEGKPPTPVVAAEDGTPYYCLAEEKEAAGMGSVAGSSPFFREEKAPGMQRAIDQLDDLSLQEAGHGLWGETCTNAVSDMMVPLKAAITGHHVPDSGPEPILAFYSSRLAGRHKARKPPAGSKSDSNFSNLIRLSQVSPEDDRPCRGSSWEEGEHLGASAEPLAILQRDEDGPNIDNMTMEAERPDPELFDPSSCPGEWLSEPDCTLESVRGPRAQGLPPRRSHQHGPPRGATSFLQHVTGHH
The assay is described as follows: Selectivity interaction (KinomeScan (DiscoverX)) EUB0001619a HIPK4. The conditions noted are these: at 1 µM.

In assay [2] the target is T2, Ephrin type-B receptor 2 (Homo sapiens) (UniProt P29323).
T2 sequence (whole entry): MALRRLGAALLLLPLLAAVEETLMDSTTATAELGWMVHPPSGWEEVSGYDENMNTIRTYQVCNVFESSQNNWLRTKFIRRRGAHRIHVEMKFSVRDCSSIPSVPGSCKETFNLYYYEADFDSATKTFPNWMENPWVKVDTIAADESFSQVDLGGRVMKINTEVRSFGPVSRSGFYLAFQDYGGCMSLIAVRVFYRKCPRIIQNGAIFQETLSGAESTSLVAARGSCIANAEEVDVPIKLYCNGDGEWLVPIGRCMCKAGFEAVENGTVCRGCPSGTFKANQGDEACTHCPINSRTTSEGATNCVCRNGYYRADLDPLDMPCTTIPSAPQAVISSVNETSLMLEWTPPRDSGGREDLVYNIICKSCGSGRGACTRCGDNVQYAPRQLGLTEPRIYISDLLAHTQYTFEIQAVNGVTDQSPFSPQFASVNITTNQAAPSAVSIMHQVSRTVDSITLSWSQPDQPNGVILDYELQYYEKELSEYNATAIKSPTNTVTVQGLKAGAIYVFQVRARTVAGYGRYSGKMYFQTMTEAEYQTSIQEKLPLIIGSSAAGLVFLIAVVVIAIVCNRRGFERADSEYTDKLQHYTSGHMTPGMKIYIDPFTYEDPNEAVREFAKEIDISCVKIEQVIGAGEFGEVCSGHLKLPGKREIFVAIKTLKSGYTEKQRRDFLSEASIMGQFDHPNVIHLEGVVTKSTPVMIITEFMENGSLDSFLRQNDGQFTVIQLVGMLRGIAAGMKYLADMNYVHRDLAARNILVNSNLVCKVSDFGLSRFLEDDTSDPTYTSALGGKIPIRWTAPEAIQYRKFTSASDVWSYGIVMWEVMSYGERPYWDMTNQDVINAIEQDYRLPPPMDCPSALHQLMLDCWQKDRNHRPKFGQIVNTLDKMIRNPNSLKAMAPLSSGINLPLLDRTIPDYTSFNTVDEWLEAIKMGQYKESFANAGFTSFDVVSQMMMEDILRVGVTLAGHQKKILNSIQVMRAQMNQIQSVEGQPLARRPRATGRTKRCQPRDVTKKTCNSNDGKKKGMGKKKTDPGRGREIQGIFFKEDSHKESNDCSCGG
The assay is described as follows: Selectivity interaction (SelectScreen profiling (Invitrogen)) EUB0000607a EPHB2. The conditions noted are these: at 2 µM.

For assay [3], the target named is T3, Aurora kinase A (Homo sapiens) (UniProt O14965).
T3 sequence (whole entry): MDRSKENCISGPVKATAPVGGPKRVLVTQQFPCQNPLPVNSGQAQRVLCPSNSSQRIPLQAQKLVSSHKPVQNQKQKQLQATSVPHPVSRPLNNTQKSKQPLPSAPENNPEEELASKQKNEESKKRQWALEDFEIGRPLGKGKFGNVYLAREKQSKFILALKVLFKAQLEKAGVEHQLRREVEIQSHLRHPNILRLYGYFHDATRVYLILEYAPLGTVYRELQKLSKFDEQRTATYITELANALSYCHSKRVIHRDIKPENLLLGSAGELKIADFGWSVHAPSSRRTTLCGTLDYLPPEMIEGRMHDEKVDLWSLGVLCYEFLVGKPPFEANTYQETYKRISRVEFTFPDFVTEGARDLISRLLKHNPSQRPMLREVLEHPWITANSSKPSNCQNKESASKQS
The experiment in a line: Selectivity interaction (ActivX KiNativ screen (kinase selectivity in THP-1 cell lysates)) EUB0000639a STK6. The format is subcellular. The conditions noted are these: lysate, at 0.2 µM.

The target in assay [4] is T4, 5-hydroxytryptamine receptor 2C (Homo sapiens) (UniProt P28335).
T4 sequence (whole entry): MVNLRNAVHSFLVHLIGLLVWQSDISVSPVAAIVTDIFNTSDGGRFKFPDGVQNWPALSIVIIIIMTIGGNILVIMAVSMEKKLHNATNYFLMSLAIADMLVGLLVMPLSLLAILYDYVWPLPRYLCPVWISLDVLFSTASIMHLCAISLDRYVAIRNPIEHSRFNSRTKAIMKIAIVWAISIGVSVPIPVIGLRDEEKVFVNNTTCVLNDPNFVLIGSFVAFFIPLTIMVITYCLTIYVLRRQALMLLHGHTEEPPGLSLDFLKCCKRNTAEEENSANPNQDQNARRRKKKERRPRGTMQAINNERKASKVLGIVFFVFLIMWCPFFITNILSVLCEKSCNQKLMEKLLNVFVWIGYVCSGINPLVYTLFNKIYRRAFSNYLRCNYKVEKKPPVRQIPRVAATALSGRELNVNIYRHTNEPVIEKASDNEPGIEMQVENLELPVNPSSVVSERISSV
The experiment in a line: Selectivity interaction (Panel of kinases, GPCRs, ion channels and transporters (enzymatic assay)) EUB0000223bCl HTR2C.

For assay [5], the target named is Cyclin-dependent kinase 7/ cyclin H (Homo sapiens) (UniProt P51946+P50613). The assay is described as follows: Selectivity interaction (Upstate Kinase Profiler service (Millipore)) EUB0000056c CDK7. The conditions noted are these: at 1 µM. Format: protein-complex assay.
In assay [6] the target is Histone-lysine N-methyltransferase PRDM9 (Homo sapiens) (UniProt Q9NQV7). The assay is described as follows: Selectivity interaction (Methyltransferase screen (radiometric assays, panel of 8 PRMTs, 21 protein lysine methyltransferases, 3 DNA methyltransferases, and one RNA methyltransferase)) EUB0000272b PRDM9.
Histone-lysine N-methyltransferase PRDM9 (Homo sapiens), sequence (Q9NQV7 whole entry): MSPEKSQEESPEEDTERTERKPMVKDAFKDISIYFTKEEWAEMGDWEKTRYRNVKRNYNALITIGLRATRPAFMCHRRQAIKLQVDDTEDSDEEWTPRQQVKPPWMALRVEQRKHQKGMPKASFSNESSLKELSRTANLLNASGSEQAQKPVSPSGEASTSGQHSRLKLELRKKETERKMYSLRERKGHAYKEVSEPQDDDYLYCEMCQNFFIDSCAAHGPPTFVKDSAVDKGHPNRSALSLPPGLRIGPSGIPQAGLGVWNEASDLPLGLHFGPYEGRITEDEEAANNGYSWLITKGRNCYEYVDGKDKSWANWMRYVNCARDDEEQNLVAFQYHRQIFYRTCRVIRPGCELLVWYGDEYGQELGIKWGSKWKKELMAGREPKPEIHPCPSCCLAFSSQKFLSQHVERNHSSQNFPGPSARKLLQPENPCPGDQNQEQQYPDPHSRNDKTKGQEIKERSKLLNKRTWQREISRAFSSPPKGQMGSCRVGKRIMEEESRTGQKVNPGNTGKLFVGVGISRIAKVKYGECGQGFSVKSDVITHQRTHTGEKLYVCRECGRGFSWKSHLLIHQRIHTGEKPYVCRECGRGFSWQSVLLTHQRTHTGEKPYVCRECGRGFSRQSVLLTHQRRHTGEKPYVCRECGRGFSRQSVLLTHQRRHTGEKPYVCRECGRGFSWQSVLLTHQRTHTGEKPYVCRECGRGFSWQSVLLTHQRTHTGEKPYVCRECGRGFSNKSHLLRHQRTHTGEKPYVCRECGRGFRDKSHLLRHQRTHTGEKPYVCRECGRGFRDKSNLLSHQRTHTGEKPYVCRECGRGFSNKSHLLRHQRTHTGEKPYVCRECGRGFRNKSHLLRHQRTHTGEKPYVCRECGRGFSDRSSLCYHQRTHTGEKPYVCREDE

`N#Cc1cccc(-c2c[nH]c3ncnc(N4CCOCC4)c23)c1` came in with a % of control in assay [1] of 100%. With `CNC(=O)Nc1ccc(-c2nc(N3CC4CCC(C3)O4)c3cnn(C4CCC5(CC4)OCCO5)c3n2)cc1`, in assay [2], the % of inhibition turned out to be 6%. Take `CC[C@@H]1[C@H](F)C(=O)N[C@@H]1COc1nccc2cc(C(N)=O)c(OC)cc12` [ZIMLOVISERTIB]: the % of inhibition in assay [3] is -1%.

As to `COc1cc(C(=O)N2CC[C@@H](O)[C@@H](N)C2)cc2nc(-c3cc4ccccc4n3CC3CC3)n(C)c12`, in assay [4], the pXC50 is less than 4.4 M. For `Cc1ccc(-c2ccc3c(ccc4sc5c(c43)NC[C@@H](C)NC5=O)n2)cn1`, the % of inhibition in assay [5] amounted to 5%.

As for `Cc1cc(C)cc([C@H]2c3cc(C)ccc3NC(=O)CN2C(=O)c2ccc(Br)s2)c1`, the figures for the % of activity in assay [6] (at 1 µM) and in assay [6] (at 10 µM) were 98.7% and 96.3%, respectively.
